Patent US8759535B2, “Substituted fused imidazole derivatives, pharmaceutical compositions, and methods of use thereof” (High Point Pharmaceuticals, LLC, priority 2010, dated 2014)

tested on: HMOX1; experiment: HMOX1 Protein Assay (immunostaining of HO-1 in NHLF cells, GE InCell 1000); type: cell-based; settings: Homo sapiens, fold change above DMSO treated cells, 3 μM compound (asterisk), 16 h
How it was run: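 Fold induction of HO-1 over vehicle, normally at 5 μM compound (asterisk marks 3 μM), in 0.8% DMSO medium. Normal human lung fibroblasts were treated 16 h, then paraformaldehyde-fixed, anti-HO-1/Alexa 488 stained with Hoechst, and read by high-content imaging.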

In the case of `CO[C@H]1CCN(C(=O)CNC(=O)c2ccc3c(c2)nc(Nc2nc4ccc(Cl)cc4s2)n3C)C1` [Example 409, 2-(6-Chloro-benzothiazol-2-ylamino)-1-methyl-1H-benzoimidazole-5-carboxylic acid [2-((S)-3-methoxy-pyrrolidin-1-yl)-2-oxo-ethyl]-amide], the fold induction at 3 µM is reported as 29.

same assay, conditions: Homo sapiens, fold change above DMSO treated cells, 5 μM compound, 16 h

Point of comparison: `CN(C)C(=O)CNC(=O)c1cnc2c(c1)nc(Nc1nc3ccc(OC(F)(F)F)cc3s1)n2C` [Example 74, 3-Methyl-2-(6-trifluoromethoxy-benzothiazol-2-ylamino)-3H-imidazo[4,5-b]pyridine-6-carboxylic acid dimethylcarbamoylmethyl-amide], fold induction at 5 µM 11.1. Against it:
- Cn1c(Nc2nc3ccc(OC(F)(F)F)cc3s2)nc2cc(C(=O)NCC(=O)N3CCCCC3CO)ccc21 (stereo not shown) [Example 439, 1-Methyl-2-(6-trifluoromethoxy-benzothiazol-2-ylamino)-1H-benzoimidazole-5-carboxylic acid [2-(2-hydroxymethyl-piperidin-1-yl)-2-oxo-ethyl]-amide] — higher, 84.2
- Cn1c(Nc2nc3ccc(OC(F)(F)F)cc3s2)nc2cc(C(=O)NCCOCCN)ccc21 [Example 268, 1-Methyl-2-(6-trifluoromethoxy-benzothiazol-2-ylamino)-1H-benzoimidazole-5-carboxylic acid [2-(2-amino-ethoxy)-ethyl]-amide] — higher, 28.4
- Cn1c(Nc2nc3ccc(Cl)cc3s2)nc2cc(C(=O)NCCO)ccc21 [Example 30, 2-(6-Chloro-benzothiazol-2-ylamino)-1-methyl-1H-benzoimidazole-5-carboxylic acid (2-hydroxy-ethyl)-amide] — higher, 21.4
- COCCNC(=O)c1ccc2c(c1)nc(Nc1nc3ccc(S(C)(=O)=O)cc3s1)n2C [Example 127, 2-(6-Methanesulfonyl-benzothiazol-2-ylamino)-1-methyl-1H-benzimidazole-5-carboxylic acid (2-methoxy-ethyl)-amide] — higher, 12.4
- CCNC(=O)[C@H](C)NC(=O)c1ccc2c(c1)nc(Nc1nc3ccc(OC(F)(F)F)cc3s1)n2C [Example 81, 1-Methyl-2-(6-trifluoromethoxy-benzothiazol-2-ylamino)-1H-benzoimidazole-5-carboxylic acid ((S)-1-ethylcarbamoyl-ethyl)-amide] — higher, 17
